What all share (type): cell-based
For assay [1], the target named is T1, PfATP4 (PfATP4^OR line) (Plasmodium falciparum, UniProt A0A143ZZK9).
T1 construct: gene ATP4; full-length recodonized coding region replacing pkatp4 in P. knowlesi A1-H.1; untagged; intact parasites
As to the kind of experiment: growth inhibition of orthologue replacement parasite line, SYBR green I (whole-cell read-out). The settings on record: intact P. knowlesi parasites in erythrocytes, 27 h (one life cycle); not a direct enzyme assay. An excerpt: growth inhibition of orthologue replacement parasite line, SYBR green I (whole-cell read-out) on PfATP4 (PfATP4^OR line)

Assay [2] has as its target T2, PmATP4 (PmATP4^OR line) (Plasmodium malariae, UniProt A0A1A8WBD6).
T2 construct: gene ATP4; full-length recodonized coding region replacing pkatp4 in P. knowlesi A1-H.1; untagged; intact parasites
T2 sequence (A0A1A8WBD6 1-1380): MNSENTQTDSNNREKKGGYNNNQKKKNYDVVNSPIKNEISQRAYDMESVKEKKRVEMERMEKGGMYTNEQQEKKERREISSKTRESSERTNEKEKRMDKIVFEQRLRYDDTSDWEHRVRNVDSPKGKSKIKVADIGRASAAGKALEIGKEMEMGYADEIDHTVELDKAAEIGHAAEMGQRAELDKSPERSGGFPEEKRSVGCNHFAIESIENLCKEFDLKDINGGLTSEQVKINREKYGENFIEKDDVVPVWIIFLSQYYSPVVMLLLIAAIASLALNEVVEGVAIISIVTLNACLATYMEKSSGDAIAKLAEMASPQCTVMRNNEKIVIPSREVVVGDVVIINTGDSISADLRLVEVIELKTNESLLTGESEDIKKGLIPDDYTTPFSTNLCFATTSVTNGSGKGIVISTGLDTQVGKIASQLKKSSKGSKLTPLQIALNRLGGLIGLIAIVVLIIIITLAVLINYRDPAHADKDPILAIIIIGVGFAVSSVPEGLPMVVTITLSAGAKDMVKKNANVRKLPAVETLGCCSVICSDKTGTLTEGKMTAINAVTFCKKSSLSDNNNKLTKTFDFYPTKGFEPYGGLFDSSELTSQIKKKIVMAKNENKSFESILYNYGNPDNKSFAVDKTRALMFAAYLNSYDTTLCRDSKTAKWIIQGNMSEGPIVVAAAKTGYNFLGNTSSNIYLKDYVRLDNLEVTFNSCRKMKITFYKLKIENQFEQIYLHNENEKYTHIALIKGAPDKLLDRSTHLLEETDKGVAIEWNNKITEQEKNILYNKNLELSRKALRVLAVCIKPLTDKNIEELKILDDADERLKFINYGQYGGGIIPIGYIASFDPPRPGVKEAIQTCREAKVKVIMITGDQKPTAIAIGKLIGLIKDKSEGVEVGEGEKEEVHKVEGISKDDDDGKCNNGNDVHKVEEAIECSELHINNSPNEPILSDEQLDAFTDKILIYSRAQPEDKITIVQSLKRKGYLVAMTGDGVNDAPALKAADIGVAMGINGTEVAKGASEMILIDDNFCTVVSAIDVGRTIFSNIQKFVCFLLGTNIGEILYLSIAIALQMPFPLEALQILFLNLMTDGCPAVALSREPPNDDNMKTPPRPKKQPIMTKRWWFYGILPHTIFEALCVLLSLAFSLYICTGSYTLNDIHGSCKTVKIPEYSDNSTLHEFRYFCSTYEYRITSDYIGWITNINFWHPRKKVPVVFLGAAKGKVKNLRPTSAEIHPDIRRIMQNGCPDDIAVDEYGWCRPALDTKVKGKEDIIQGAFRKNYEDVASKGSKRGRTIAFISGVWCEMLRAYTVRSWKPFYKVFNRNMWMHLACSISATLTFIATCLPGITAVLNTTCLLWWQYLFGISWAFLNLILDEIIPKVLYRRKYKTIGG
The assay is described as above. The settings on record: intact P. knowlesi parasites in erythrocytes, 27 h (one life cycle); not a direct enzyme assay. An excerpt:
growth inhibition of orthologue replacement parasite line, SYBR green I (whole-cell read-out) on PmATP4 (PmATP4^OR line)

Assay [3] deals with T3, PvATP4 (PvATP4^OR line) (Plasmodium vivax, UniProt A5K0L8).
T3 construct: gene PVX_084625; full-length recodonized coding region replacing pkatp4 in P. knowlesi A1-H.1; untagged; intact parasites
As to the kind of experiment: SBFI fluorescence of intracellular Na+ in saponin-isolated trophozoites. The settings on record: 0.1 µM, physiological saline, pH 7.1, 37°C. An excerpt: SBFI fluorescence of intracellular Na+ in saponin-isolated trophozoites on PvATP4 (PvATP4^OR line)

The target of assay [4] is T3, PvATP4 (PvATP4^OR line). As to the kind of experiment: growth inhibition of orthologue replacement parasite line, SYBR green I (whole-cell read-out). The settings on record: intact P. knowlesi parasites in erythrocytes, 27 h (one life cycle); not a direct enzyme assay. The text has this:
growth inhibition of orthologue replacement parasite line, SYBR green I (whole-cell read-out) on PvATP4 (PvATP4^OR line)

The target of assay [5] is T4, PocATP4 (PocATP4^OR line) (Plasmodium ovale, UniProt A0A1D3TM67).
T4 construct: gene ATP4; full-length recodonized coding region replacing pkatp4 in P. knowlesi A1-H.1; untagged; intact parasites
T4 sequence (A0A1D3TM67 1-1433): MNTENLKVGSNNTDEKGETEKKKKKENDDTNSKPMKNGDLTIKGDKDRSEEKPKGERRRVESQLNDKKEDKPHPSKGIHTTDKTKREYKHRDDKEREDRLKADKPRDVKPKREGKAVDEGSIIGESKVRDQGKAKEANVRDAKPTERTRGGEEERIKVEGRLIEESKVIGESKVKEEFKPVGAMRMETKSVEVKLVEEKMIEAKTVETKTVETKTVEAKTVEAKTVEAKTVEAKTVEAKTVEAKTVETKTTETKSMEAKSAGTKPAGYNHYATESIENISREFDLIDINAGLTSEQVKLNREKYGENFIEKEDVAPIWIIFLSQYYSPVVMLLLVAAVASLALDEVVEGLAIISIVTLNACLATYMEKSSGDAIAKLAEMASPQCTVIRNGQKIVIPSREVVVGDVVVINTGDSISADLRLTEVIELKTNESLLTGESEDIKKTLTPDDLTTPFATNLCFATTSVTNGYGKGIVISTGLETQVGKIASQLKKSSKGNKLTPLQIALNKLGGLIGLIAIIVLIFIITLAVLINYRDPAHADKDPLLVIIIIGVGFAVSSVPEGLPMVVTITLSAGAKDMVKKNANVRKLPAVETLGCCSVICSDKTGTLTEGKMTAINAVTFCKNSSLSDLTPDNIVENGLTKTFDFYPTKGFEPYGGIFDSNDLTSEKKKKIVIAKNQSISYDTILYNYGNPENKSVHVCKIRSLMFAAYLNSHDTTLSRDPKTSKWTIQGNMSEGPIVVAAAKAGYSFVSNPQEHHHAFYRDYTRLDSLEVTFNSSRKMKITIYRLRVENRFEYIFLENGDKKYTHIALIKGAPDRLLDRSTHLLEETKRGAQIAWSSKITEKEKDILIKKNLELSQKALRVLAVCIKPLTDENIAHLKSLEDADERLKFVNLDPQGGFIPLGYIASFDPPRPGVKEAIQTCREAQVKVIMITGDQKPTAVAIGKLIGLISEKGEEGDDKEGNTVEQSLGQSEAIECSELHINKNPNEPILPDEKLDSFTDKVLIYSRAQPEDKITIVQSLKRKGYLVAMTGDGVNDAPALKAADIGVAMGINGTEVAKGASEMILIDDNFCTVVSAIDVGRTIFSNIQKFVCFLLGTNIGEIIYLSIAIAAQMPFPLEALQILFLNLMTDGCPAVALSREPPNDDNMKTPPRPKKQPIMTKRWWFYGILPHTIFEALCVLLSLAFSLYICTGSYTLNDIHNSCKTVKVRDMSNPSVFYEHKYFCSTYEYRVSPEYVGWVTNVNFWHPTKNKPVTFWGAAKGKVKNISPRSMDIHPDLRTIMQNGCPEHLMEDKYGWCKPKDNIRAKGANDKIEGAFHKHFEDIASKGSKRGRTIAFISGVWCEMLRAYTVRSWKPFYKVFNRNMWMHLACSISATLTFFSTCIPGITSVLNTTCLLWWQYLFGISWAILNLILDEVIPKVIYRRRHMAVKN
As to the kind of experiment: SBFI fluorescence of intracellular Na+ in saponin-isolated trophozoites. The settings on record: 0.1 µM, physiological saline, pH 7.1, 37°C. The text has this: SBFI fluorescence of intracellular Na+ in saponin-isolated trophozoites on PocATP4 (PocATP4^OR line)

Assay [6] addresses T2, PmATP4 (PmATP4^OR line). Described as above. The settings on record: 0.1 µM, physiological saline, pH 7.1, 37°C. The text has this:
SBFI fluorescence of intracellular Na+ in saponin-isolated trophozoites on PmATP4 (PmATP4^OR line)

Assay [7] has as its target T4, PocATP4 (PocATP4^OR line). As to the kind of experiment: growth inhibition of orthologue replacement parasite line, SYBR green I (whole-cell read-out). The settings on record: intact P. knowlesi parasites in erythrocytes, 27 h (one life cycle); not a direct enzyme assay. An excerpt: growth inhibition of orthologue replacement parasite line, SYBR green I (whole-cell read-out) on PocATP4 (PocATP4^OR line)

The target in assay [8] is T5, PkATP4 (PkATP4^OR line) (Plasmodium knowlesi, UniProt A0A384LKC1).
T5 construct: gene PKNH_1312000; untagged; intact parasites
T5 sequence (A0A384LKC1 1-1293): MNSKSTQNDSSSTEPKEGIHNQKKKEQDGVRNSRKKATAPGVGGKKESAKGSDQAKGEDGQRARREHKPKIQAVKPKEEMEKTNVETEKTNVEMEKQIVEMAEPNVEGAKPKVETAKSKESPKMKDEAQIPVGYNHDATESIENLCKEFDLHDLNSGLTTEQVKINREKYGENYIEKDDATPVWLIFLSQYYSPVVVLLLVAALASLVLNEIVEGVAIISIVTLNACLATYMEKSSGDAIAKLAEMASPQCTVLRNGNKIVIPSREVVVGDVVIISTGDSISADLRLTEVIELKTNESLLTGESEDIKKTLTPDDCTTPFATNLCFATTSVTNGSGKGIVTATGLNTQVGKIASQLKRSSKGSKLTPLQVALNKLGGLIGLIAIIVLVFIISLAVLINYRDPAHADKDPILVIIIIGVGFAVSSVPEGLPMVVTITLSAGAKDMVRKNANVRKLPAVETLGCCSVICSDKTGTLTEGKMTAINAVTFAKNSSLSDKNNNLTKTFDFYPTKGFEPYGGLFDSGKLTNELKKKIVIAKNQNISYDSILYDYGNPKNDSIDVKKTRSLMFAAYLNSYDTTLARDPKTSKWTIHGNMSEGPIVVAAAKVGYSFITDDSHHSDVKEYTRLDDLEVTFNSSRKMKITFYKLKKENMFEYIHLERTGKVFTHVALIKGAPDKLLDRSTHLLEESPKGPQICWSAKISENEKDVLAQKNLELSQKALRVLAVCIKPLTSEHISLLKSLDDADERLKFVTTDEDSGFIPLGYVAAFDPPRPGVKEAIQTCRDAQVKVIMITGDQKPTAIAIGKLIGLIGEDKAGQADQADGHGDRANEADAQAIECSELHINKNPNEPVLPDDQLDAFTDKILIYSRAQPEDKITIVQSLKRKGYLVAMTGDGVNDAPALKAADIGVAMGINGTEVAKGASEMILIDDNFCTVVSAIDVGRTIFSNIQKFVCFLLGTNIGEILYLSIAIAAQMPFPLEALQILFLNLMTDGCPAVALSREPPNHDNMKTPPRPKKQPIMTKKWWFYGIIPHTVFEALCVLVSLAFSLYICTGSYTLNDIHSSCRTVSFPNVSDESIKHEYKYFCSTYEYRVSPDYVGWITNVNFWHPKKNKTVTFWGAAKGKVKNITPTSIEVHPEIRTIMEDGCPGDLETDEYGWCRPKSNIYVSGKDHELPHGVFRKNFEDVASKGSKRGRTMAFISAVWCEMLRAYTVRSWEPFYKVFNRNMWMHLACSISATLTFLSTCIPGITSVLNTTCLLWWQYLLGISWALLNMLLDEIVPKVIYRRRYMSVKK
As to the kind of experiment: SBFI fluorescence of intracellular Na+ in saponin-isolated trophozoites. The settings on record: 0.1 µM, physiological saline, pH 7.1, 37°C. The text has this: SBFI fluorescence of intracellular Na+ in saponin-isolated trophozoites on PkATP4 (PkATP4^OR line)

Assay [9] deals with T1, PfATP4 (PfATP4^OR line). Described as above. The settings on record: 0.1 µM, physiological saline, pH 7.1, 37°C. The text has this: SBFI fluorescence of intracellular Na+ in saponin-isolated trophozoites on PfATP4 (PfATP4^OR line)
For assay [10], the target named is T5, PkATP4 (PkATP4^OR line). As to the kind of experiment: growth inhibition of orthologue replacement parasite line, SYBR green I (whole-cell read-out). The settings on record: intact P. knowlesi parasites in erythrocytes, 27 h (one life cycle); not a direct enzyme assay. The text has this: growth inhibition of orthologue replacement parasite line, SYBR green I (whole-cell read-out) on PkATP4 (PkATP4^OR line)

T1 sequence (A0A143ZZK9 whole entry): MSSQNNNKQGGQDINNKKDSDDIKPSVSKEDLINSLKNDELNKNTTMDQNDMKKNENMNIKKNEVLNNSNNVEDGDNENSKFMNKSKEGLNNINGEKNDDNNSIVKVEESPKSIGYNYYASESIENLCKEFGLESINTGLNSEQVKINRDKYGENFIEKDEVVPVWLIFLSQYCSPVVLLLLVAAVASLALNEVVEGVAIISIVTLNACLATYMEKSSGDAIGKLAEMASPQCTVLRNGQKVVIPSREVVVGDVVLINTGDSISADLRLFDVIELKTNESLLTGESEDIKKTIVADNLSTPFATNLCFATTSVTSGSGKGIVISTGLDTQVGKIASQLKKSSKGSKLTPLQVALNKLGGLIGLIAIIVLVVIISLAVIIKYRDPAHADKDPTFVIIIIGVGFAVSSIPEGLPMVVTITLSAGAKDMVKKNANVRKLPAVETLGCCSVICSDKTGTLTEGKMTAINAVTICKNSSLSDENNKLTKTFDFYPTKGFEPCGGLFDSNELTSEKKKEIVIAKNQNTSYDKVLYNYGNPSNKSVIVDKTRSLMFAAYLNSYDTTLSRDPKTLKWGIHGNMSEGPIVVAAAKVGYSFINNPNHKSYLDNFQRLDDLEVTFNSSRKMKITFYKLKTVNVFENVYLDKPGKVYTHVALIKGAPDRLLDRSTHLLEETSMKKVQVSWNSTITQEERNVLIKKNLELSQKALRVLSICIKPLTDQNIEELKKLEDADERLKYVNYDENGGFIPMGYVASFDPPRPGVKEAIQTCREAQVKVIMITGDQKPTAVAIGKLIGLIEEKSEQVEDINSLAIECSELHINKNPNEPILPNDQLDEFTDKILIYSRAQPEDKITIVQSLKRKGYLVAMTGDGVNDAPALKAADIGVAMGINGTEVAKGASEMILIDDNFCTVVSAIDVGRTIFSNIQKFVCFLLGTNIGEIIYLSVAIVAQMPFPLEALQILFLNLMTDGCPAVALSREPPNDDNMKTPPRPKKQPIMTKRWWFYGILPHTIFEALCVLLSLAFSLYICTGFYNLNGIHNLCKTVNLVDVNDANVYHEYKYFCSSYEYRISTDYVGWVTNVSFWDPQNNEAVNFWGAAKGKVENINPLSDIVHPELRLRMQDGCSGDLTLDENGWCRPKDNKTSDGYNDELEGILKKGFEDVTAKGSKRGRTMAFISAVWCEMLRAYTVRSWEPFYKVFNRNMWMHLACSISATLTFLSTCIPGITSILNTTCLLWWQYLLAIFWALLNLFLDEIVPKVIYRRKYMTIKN

On to `C[C@H]1Cc2c([nH]c3cc(Cl)c(F)cc23)[C@@]2(N1)C(=O)Nc1ccc(Cl)cc12` [cipargamin], for which the “EC50, nM (P value) / Cipargamin” value is listed as 1.62 ± 0.37 nM in assay [1]; 9.44 ± 2.0 nM in assay [2]; 22.9 ± 4.2 nM in [4]; 34.1 ± 1.6 nM in assay [7]; 13.5 ± 2.4 nM in assay [10]. Also, the “Rate of increase in [Na^+]i 10 min after cipargamin exposure, μM/s (P value)” value in assay [3] amounted to 96.6 ± 47.3 µM/s; in [5] it was 41.5 ± 8.85 µM/s; in assay [6] it was 35.7 ± 8.07 µM/s; in assay [8], 35.8 ± 9.98 µM/s; in [9], 203.2 ± 54.1 µM/s.
On to PA21A092, for which the “EC50, nM (P value) / PA21A092” value was 17.8 ± 2.9 nM in assay [1]; 92.8 ± 14.7 nM in [2]; 94.8 ± 14.6 nM in [4]; 599 ± 70 nM in assay [7]; 126 ± 5.5 nM in assay [10].

The values are drawn from PMC9600963, “Cation ATPase (ATP4) Orthologue Replacement in the Malaria Parasite Plasmodium knowlesi Reveals Species-Specific Responses to ATP4-Targeting Drugs” (mBio, 2022).
